Converted amounts (≈) assume the structure as drawn.
test system: not listed separately; assay: Acute toxicity test by intraperitoneal administration; settings: mouse, in vivo, ip, ICR male mice, 1 week observation
Procedure: Acute toxicity test was conducted by intraperitoneal administration using a group of twenty ICR male mice (4 weeks old, body weight around 20 g).
LD50 value was calculated by the Richfield-Willcokson method from a lethal ratio observing the fate of mice during 1 week after administration of a test compound.

Structure (SMILES) | LD50 at 168 h [mg/kg]
CCCC(=O)OCc1c([C@@](O)(CC)C(=O)NCCN(C)C)cc2n(c1=O)Cc1c-2nc2ccc(Cl)cc2c1CC [Compound C4] | 142
CCOc1ccc2nc3c(c(C)c2c1)Cn1c-3cc([C@@](O)(CC)C(=O)NCCN(C)C)c(COC(=O)CCSC)c1=O [Compound C1] | 164
CCC(=O)OCc1c([C@@](O)(CC)C(=O)NCCN(C)C)cc2n(c1=O)Cc1c-2nc2ccc(Cl)cc2c1CC [Compound C3] | 186
CC[C@@](O)(C(=O)NCCN(C)C)c1cc2n(c(=O)c1COC(=O)CCSC)Cc1c-2nc2cc(Br)ccc2c1C [Compound C2] | 241
CCc1c2c(nc3cc(F)ccc13)-c1cc([C@@](O)(CC)C(=O)NCCN(C)C)c(COC(=O)c3ccc(OC)cc3)c(=O)n1C2 [Compound C11] | 146
CCC(=O)OCc1c([C@@](O)(CC)C(=O)NCCN(C)C)cc2n(c1=O)Cc1c-2nc2cc(Cl)c(Cl)cc2c1CC [Compound C17] | 112

test system: not listed separately; assay: Antitumor activity for L1210 (life prolonging effect, mouse leukemia transplanted intraperitoneally); assay type: in vivo; settings: mouse, in vivo, ip; numerator of therapeutic index; i.p. total dose; read-out: Maximum tolerable dose
Procedure: (§1) 5×10^5 cells of mouse leukemia L1210 were transplanted intraperitoneally to a group of six female CDF1 mice (7 weeks old, body weight 17-19 g). The test compound was administered intraperitoneally on day 1, 5 and 9 and its life prolonging effect was observed.
(§2) In a case of the administration of a test compound as an acid addition salt the test compound was dissolved in water. The total administration amount was 1.56 mg/kg-400 mg/kg. The antitumor activity was expressed by the value (T/C%) wherein T denotes the mean survival days in the drug administered group and C denotes those in the non administered group. In case of equal to or more than 125% the drug is considered to be effective.

Structure (SMILES) | MTD [mg/kg]
CCCC(=O)OCc1c([C@@](O)(CC)C(=O)NCCN(C)C)cc2n(c1=O)Cc1c-2nc2ccc(Cl)cc2c1CC [Compound C4] | 6.25
CCOc1ccc2nc3c(c(C)c2c1)Cn1c-3cc([C@@](O)(CC)C(=O)NCCN(C)C)c(COC(=O)CCSC)c1=O [Compound C1] | 6.25
CCC(=O)OCc1c([C@@](O)(CC)C(=O)NCCN(C)C)cc2n(c1=O)Cc1c-2nc2ccc(Cl)cc2c1CC [Compound C3] | 6.25
CC[C@@](O)(C(=O)NCCN(C)C)c1cc2n(c(=O)c1COC(=O)CCSC)Cc1c-2nc2cc(Br)ccc2c1C [Compound C2] | 25
CCc1c2c(nc3cc(F)ccc13)-c1cc([C@@](O)(CC)C(=O)NCCN(C)C)c(COC(=O)c3ccc(OC)cc3)c(=O)n1C2 [Compound C11] | 50
CCC(=O)OCc1c([C@@](O)(CC)C(=O)NCCN(C)C)cc2n(c1=O)Cc1c-2nc2cc(Cl)c(Cl)cc2c1CC [Compound C17] | 6.25

test system: mouse leukemia L1210; assay: as above; assay type: in vivo; settings: Mus musculus, L1210, ip; denominator of therapeutic index; i.p. total dose; read-out: Minimum effective dose
Procedure: as §1, §2

Structure (SMILES) | minimal effective dose [mg/kg]
CCCC(=O)OCc1c([C@@](O)(CC)C(=O)NCCN(C)C)cc2n(c1=O)Cc1c-2nc2ccc(Cl)cc2c1CC [Compound C4] | < 1.56
CCOc1ccc2nc3c(c(C)c2c1)Cn1c-3cc([C@@](O)(CC)C(=O)NCCN(C)C)c(COC(=O)CCSC)c1=O [Compound C1] | 1.56
CCC(=O)OCc1c([C@@](O)(CC)C(=O)NCCN(C)C)cc2n(c1=O)Cc1c-2nc2ccc(Cl)cc2c1CC [Compound C3] | < 1.56
CC[C@@](O)(C(=O)NCCN(C)C)c1cc2n(c(=O)c1COC(=O)CCSC)Cc1c-2nc2cc(Br)ccc2c1C [Compound C2] | 3.13
CCc1c2c(nc3cc(F)ccc13)-c1cc([C@@](O)(CC)C(=O)NCCN(C)C)c(COC(=O)c3ccc(OC)cc3)c(=O)n1C2 [Compound C11] | 6.25
CCC(=O)OCc1c([C@@](O)(CC)C(=O)NCCN(C)C)cc2n(c1=O)Cc1c-2nc2cc(Cl)c(Cl)cc2c1CC [Compound C17] | 1.56

same assay, conditions: at optimum dose; group of six female CDF1 mice

Structure (SMILES) | 40-day survivors
CCCC(=O)OCc1c([C@@](O)(CC)C(=O)NCCN(C)C)cc2n(c1=O)Cc1c-2nc2ccc(Cl)cc2c1CC [Compound C4] | 1/6
CCOc1ccc2nc3c(c(C)c2c1)Cn1c-3cc([C@@](O)(CC)C(=O)NCCN(C)C)c(COC(=O)CCSC)c1=O [Compound C1] | 0/6
CCC(=O)OCc1c([C@@](O)(CC)C(=O)NCCN(C)C)cc2n(c1=O)Cc1c-2nc2ccc(Cl)cc2c1CC [Compound C3] | 1/6
CC[C@@](O)(C(=O)NCCN(C)C)c1cc2n(c(=O)c1COC(=O)CCSC)Cc1c-2nc2cc(Br)ccc2c1C [Compound C2] | 0/6
CCc1c2c(nc3cc(F)ccc13)-c1cc([C@@](O)(CC)C(=O)NCCN(C)C)c(COC(=O)c3ccc(OC)cc3)c(=O)n1C2 [Compound C11] | 0/6
CCC(=O)OCc1c([C@@](O)(CC)C(=O)NCCN(C)C)cc2n(c1=O)Cc1c-2nc2cc(Cl)c(Cl)cc2c1CC [Compound C17] | 2/6

same assay, conditions: i.p., L1210, CDF1 mice

Structure (SMILES) | Therapeutic Index (Maximum tolerable dose/Minimum effective dose)
CCCC(=O)OCc1c([C@@](O)(CC)C(=O)NCCN(C)C)cc2n(c1=O)Cc1c-2nc2ccc(Cl)cc2c1CC [Compound C4] | > 4
CCOc1ccc2nc3c(c(C)c2c1)Cn1c-3cc([C@@](O)(CC)C(=O)NCCN(C)C)c(COC(=O)CCSC)c1=O [Compound C1] | 4
CCC(=O)OCc1c([C@@](O)(CC)C(=O)NCCN(C)C)cc2n(c1=O)Cc1c-2nc2ccc(Cl)cc2c1CC [Compound C3] | > 4
CC[C@@](O)(C(=O)NCCN(C)C)c1cc2n(c(=O)c1COC(=O)CCSC)Cc1c-2nc2cc(Br)ccc2c1C [Compound C2] | 8
CCc1c2c(nc3cc(F)ccc13)-c1cc([C@@](O)(CC)C(=O)NCCN(C)C)c(COC(=O)c3ccc(OC)cc3)c(=O)n1C2 [Compound C11] | 8
CCC(=O)OCc1c([C@@](O)(CC)C(=O)NCCN(C)C)cc2n(c1=O)Cc1c-2nc2cc(Cl)c(Cl)cc2c1CC [Compound C17] | 4

test system: not listed separately; assay: Water solubility; assay type: physicochemical; settings: not given

Structure (SMILES) | solubility [mg/mL]
CCCC(=O)OCc1c([C@@](O)(CC)C(=O)NCCN(C)C)cc2n(c1=O)Cc1c-2nc2ccc(Cl)cc2c1CC [Compound C4] | 41 (≈ 72 mM)
CCOc1ccc2nc3c(c(C)c2c1)Cn1c-3cc([C@@](O)(CC)C(=O)NCCN(C)C)c(COC(=O)CCSC)c1=O [Compound C1] | > 64
CCC(=O)OCc1c([C@@](O)(CC)C(=O)NCCN(C)C)cc2n(c1=O)Cc1c-2nc2ccc(Cl)cc2c1CC [Compound C3] | 29 (≈ 52.2 mM)
CC[C@@](O)(C(=O)NCCN(C)C)c1cc2n(c(=O)c1COC(=O)CCSC)Cc1c-2nc2cc(Br)ccc2c1C [Compound C2] | > 67
CCc1c2c(nc3cc(F)ccc13)-c1cc([C@@](O)(CC)C(=O)NCCN(C)C)c(COC(=O)c3ccc(OC)cc3)c(=O)n1C2 [Compound C11] | 8 (≈ 13 mM)
CCC(=O)OCc1c([C@@](O)(CC)C(=O)NCCN(C)C)cc2n(c1=O)Cc1c-2nc2cc(Cl)c(Cl)cc2c1CC [Compound C17] | > 64

Source: patent US5843954A, “Camptothecin derivatives, preparations thereof and antitumor agents” (priority 1994, dated 1998)
